For one data set, the system named is tobacco leaves. The data set can be described thus: Effect of peptide infiltration on tobacco leaves. The data set is classed as in vivo. The note with it: 250 μM, 100 μL infiltrated into mesophyll, measured after 48 h. As for the experimental part:
BP100 and the 36 lipopeptides were evaluated for their effect upon infiltration on tobacco leaves as described previously. Peptide solutions of 50, 150 and 250 μM were infiltrated (100 μL) into the mesophylls of fully expanded tobacco leaves. Infiltrations were carried out in a single leaf, and for each peptide and dose, at least three leaves randomly distributed in different plants were inoculated. Control infiltrations with water (negative control) or melittin (positive control) at the same molar concentration were performed. The appearance of symptoms on the leaves was followed for 48 h after infiltration and measured as a lesion diameter.

Data set [1] relates to Xanthomonas axonopodis pv. vesicatoria 2133–2. Kind of data set: MIC, growth inhibition in microtiter plates (TSB). Format: cell-based. Conditions: Xav, 25°C, 48 h, OD 600 nm, lowest concentration with no growth, given as interval of tested concentrations, three replicates, experiment repeated twice. The essentials:
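OD600 readout, hourly over 48 h at 25°C, 20 s shaking; TSB medium; inoculum from 10^8 CFU mL^-1 water suspension; triplicates, experiment run twice; MIC = lowest concentration showing no growth at endpoint.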

Data set [2] relates to Xanthomonas arboricola pv. pruni CFBP5563. The data set can be described thus: MIC, growth inhibition in microtiter plates (TSB). The data set is classed as cell-based. The note with it: Xap, 25°C, 48 h, OD 600 nm, lowest concentration with no growth, given as interval of tested concentrations, three replicates, experiment repeated twice. In outline:
(§1)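 Bacteria were scraped from agar after 24 h at 25°C, or 48 h for X. fragariae, and suspended in sterile water at 10^8 CFU mL^-1. Each suspension was combined with peptide dilution in Trypticase Soy Broth and incubated 48 h at 25°C. Growth was followed by absorbance at 600 nm.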

The subject of data set [3] is Pseudomonas syringae pv. syringae EPS94. Kind of data set: MIC, growth inhibition in microtiter plates (TSB). Format: cell-based. Conditions: Pss, 25°C, 48 h, OD 600 nm, lowest concentration with no growth, given as interval of tested concentrations, three replicates, experiment repeated twice. The essentials:
as §1

Data set [4] relates to Xanthomonas fragariae Xf349-9A. Kind of data set: MIC, growth inhibition in microtiter plates (TSB). The data set is classed as cell-based. Conditions: Xf, 25°C, 48 h, OD 600 nm, lowest concentration with no growth, given as interval of tested concentrations, three replicates, experiment repeated twice. The essentials: as §1
Data set [5] relates to Erwinia amylovora PMV6076. Kind of data set: MIC, growth inhibition in microtiter plates (TSB). The data set is classed as cell-based. Conditions: Ea, 25°C, 48 h, OD 600 nm, lowest concentration with no growth, given as interval of tested concentrations, three replicates, experiment repeated twice. In outline:
as §1

In data set [6] the test system is Pseudomonas syringae pv. actinidiae Psa3700.1.1. Kind of data set: MIC, growth inhibition in microtiter plates (TSB). The data set is classed as cell-based. Conditions: Psa, 25°C, 48 h, OD 600 nm, lowest concentration with no growth, given as interval of tested concentrations, three replicates, experiment repeated twice. In outline: as §1
A further data set concerns T1, proteinase K.
T1 construct: purchased Sigma-Aldrich Corporation, Spain
The data set can be described thus: Susceptibility to protease degradation. Format: in vitro ADME. The note with it: proteinase K (isolated protease) in TRIS buffer; 50 μg/mL peptide, 1 μg/mL proteinase K, 100 mM TRIS buffer pH 7.6, 25°C, 60 min; decrease of HPLC peak area (220 nm); read-out: Digestion with proteinase K (percentage of degraded peptide). The method, then:
Digestion of BP100 and of 16 selected lipopeptides was carried out by treating 50 μg/mL peptide with 1 μg/mL proteinase K (Sigma-Aldrich Corporation, Spain) in 100 mM TRIS buffer, pH 7.6, at 25°C. The peptide cleavage after 60 min was determined by HPLC using a Kromasil (4.6 × 40 mm; 3 μm particle size) C18 reverse-phase column. Linear gradients of 0.1% aqueous TFA and 0.1% TFA in CH3CN were run from 0.98:0.02 to 0:1 over 12 min with UV detection at 220 nm. Digestion was estimated as the percentage of degraded lipopeptide calculated from the decrease of the HPLC peak area of the native peptide.

Data set [7] relates to Penicillium expansum EPS26. The data set can be described thus: MIC, antifungal growth inhibition in microtiter plates (PDB). The data set is classed as cell-based. The note with it: Pe, 22°C, seven days, OD 600 nm, lowest concentration with no growth, given as interval of tested concentrations, three replicates, experiment repeated twice. In outline: (§2)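 Conidial suspensions (10^3 conidia/mL P. expansum, 10^4 F. oxysporum) incubated with peptides in PDB with 0.003% chloramphenicol at 22 °C for seven days, OD600 read every 2 h. MIC is the lowest concentration with no growth at the end; triplicates, experiment repeated twice.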

Data set [8] has as its system Fusarium oxysporum f. sp. lycopersici FOL 3 race 2. The data set is described as above. Conditions: Fo, 22°C, seven days, OD 600 nm, lowest concentration with no growth, given as interval of tested concentrations, three replicates, experiment repeated twice. Format: cell-based. In outline:
as §2

Consider `CCCCCC(=O)NCCCC[C@H](NC(=O)[C@H](CCCCN)NC(=O)[C@H](CCCCN)NC(C)=O)C(=O)N[C@@H](Cc1ccccc1)C(=O)N[C@@H](CCCCN)C(=O)N[C@@H](CCCCN)C(=O)N[C@H](C(=O)N[C@@H](CC(C)C)C(=O)N[C@@H](CCCCN)C(=O)N[C@@H](Cc1ccc(O)cc1)C(=O)N[C@@H](CC(C)C)C(N)=O)[C@@H](C)CC` [BP370, Ac-KKK(COC5H11)FKKILKYL-NH2], for which the “Size of the lesions in infiltrated tobacco leaves (diameter)” value in the data set on tobacco leaves was found to be 5.0 ± 1.6 mm. Besides, the MIC is 3.1 to 6.2 µM in [1]; 3.1 to 6.2 µM in data set [2]; 3.1 to 6.2 µM in [3]; 6.2 to 12.5 µM in data set [4]; 3.1 to 6.2 µM in data set [5]; 3.1 to 6.2 µM in [6]. For the same molecule, the values for the MIC in data set [7] and in data set [8] were 6.2 to 12.5 µM and 0.8 to 1.6 µM, respectively. Besides, the metabolised at 1 h, 50 μg/mL with proteinase K is 26%.
